In patent publication US11510993B2, “Antibody drug conjugate for anti-inflammatory applications” (Merck Sharp & Dohme Corp., priority 2015, dated 2022):
Like-named read-outs stand apart in the source and are kept apart here. Blank lines part the entries; values can stand above or below the molecule they belong to.

Legend:
[1] = In vitro stability of drug-linkers in rat liver lysosomal lysate (parent and released dexamethasone, LC-MS/MS)
[2] = In vitro stability of drug-linkers in human whole blood (parent and released dexamethasone, LC-MS/MS)
[3] = not given; remark: listed apart in the source

- Calculated Conc. for each compound in rat lysomal lysate ([1]; 0 m, 37° C.): 1456.4 nM
- Calculated Conc. for each compound in rat lysomal lysate ([1]; 5 m, 37° C.): 1851.2 nM
- Calculated Conc. for each compound in rat lysomal lysate ([1]; 10 m, 37° C.): 1640.8 nM
- Calculated Conc. for each compound in rat lysomal lysate ([1]; 15 m, 37° C.): 1666.7 nM
- Calculated Conc. for each compound in rat lysomal lysate ([1]; 30 m, 37° C.): 1602.6 nM
- Calculated Conc. for each compound in rat lysomal lysate ([1]; 1 hr, 37° C.): 1576.8 nM
- Calculated Conc. for each compound in rat lysomal lysate ([1]; 2 hr, 37° C.): 1681.0 nM
- Calculated Conc. for each compound in rat lysomal lysate ([1]; 3 hr, 37° C.): 1689.7 nM
- Calculated Conc. for each compound in rat lysomal lysate ([1]; 6 hr, 37° C.): 1689.8 nM
- Calculated Conc. for each compound in rat lysomal lysate ([1]; Matrix spiking (lysosomes pretreated with stopping reagent)): 2059.0 nM
- Calculated Conc. for each compound in human whole blood ([2]; 0 m, 37° C.): 1687 nM
- Calculated Conc. for each compound in human whole blood ([2]; 20 m, 37° C.): 2409 nM
- Calculated Conc. for each compound in human whole blood ([2]; 1 hr, 37° C.): 2224 nM
- Calculated Conc. for each compound in human whole blood ([2]; 3 hr, 37° C.): 1502 nM
- Calculated Conc. for each compound in human whole blood ([2]; 6 hr, 37° C.): 2792 nM
- Calculated Conc. for each compound in human whole blood ([2]; Matrix spiking (time 0 sample, blood pretreated with stopping reagent)): 2939 nM
SMILES: C[C@@H]1C[C@H]2[C@@H]3CCC4=CC(=O)C=C[C@]4(C)[C@@]3(F)[C@@H](O)C[C@]2(C)[C@@]1(O)C(=O)CO [Dexamethasone, dexamethasone, reference compound]

SMILES: C[C@@H]1C[C@H]2[C@@H]3CCC4=CC(=O)C=C[C@]4(C)[C@@]3(F)[C@@H](O)C[C@]2(C)[C@@]1(O)C(=O)COP(=O)(O)OCCNC(=O)COC1C#CCCCCC1 (stereo partly drawn) [Drug Linker 4-3, 2-(2-(cyclooct-2-yn-1-yloxy)acetamido)ethyl (2-((8S,9R,10S,11S,13S,14S,16R,17R)-9-fluoro-11,17-dihydroxy-10,13,16-trimethyl-3-oxo-6,7,8,9,10,11,12,13,14,15,16,17-dodecahydro-3H-cyclopenta[a]phenanthren-17-yl)-2-oxoethyl) hydrogen phosphate]
- Calculated Conc. for dexamethasone rat lysomeal lysate (0 min): 0.9 nM
- Calculated Conc. for each compound in rat lysomal lysate (0 min): 888.8 nM
- Calculated Conc. for dexamethasone rat lysomeal lysate (5 min): 14.5 nM
- Calculated Conc. for each compound in rat lysomal lysate (5 min): 1156.1 nM
- Calculated Conc. for dexamethasone rat lysomeal lysate (10 min): 14.2 nM
- Calculated Conc. for each compound in rat lysomal lysate (10 min): 983.4 nM
- Calculated Conc. for dexamethasone rat lysomeal lysate (15 min): 22.3 nM
- Calculated Conc. for each compound in rat lysomal lysate (15 min): 1032.6 nM
- Calculated Conc. for dexamethasone rat lysomeal lysate (30 min): 28.9 nM
- Calculated Conc. for each compound in rat lysomal lysate (30 min): 980.1 nM
- Calculated Conc. for dexamethasone rat lysomeal lysate (1 h): 41.6 nM
- Calculated Conc. for each compound in rat lysomal lysate (1 h): 882.4 nM
- Calculated Conc. for dexamethasone rat lysomeal lysate (2 h): 72.5 nM
- Calculated Conc. for each compound in rat lysomal lysate (2 h): 880.1 nM
- Calculated Conc. for dexamethasone rat lysomeal lysate (3 h): 90.2 nM
- Calculated Conc. for each compound in rat lysomal lysate (3 h): 903.8 nM
- Calculated Conc. for dexamethasone rat lysomeal lysate (6 h): 141.9 nM
- Calculated Conc. for each compound in rat lysomal lysate (6 h): 858.9 nM
- Calculated Conc. for each compound in human whole blood ([3]; 0 min): 1539 nM
- Calculated Conc. for dexamethasone in human whole blood ([3]; 20 min): 0 nM
- Calculated Conc. for each compound in human whole blood ([3]; 20 min): 1861 nM
- Calculated Conc. for dexamethasone in human whole blood ([3]; 1 h): 0 nM
- Calculated Conc. for each compound in human whole blood ([3]; 1 h): 1619 nM
- Calculated Conc. for dexamethasone in human whole blood ([3]; 3 h): 1 nM
- Calculated Conc. for each compound in human whole blood ([3]; 3 h): 1677 nM
- Calculated Conc. for dexamethasone in human whole blood ([3]; 6 h): 3 nM
- Calculated Conc. for each compound in human whole blood ([3]; 6 h): 2040 nM
- rate of dexamethasone release in rat lysosomal extract (in words) ([1]; compared with 3-4, 5-3 releasing faster than 4-3): more slowly released
